Experiment in all cases: relative viability (nuclei count vs DMSO), 5 days (fraction); higher = more cells survive
Compound in the assay “Idelalisib + Bortezomib”: CC[C@H](Nc1ncnc2[nH]cnc12)c1nc2cccc(F)c2c(=O)n1-c1ccccc1 [Idelalisib] + CC(C)C[C@H](NC(=O)[C@H](Cc1ccccc1)NC(=O)c1cnccn1)B(O)O [Bortezomib] (partner 0.002 µM)
The method in brief: (§1)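 Five library-drug doses in √10 steps were combined with a fixed anchor-drug dose, or a single drug was given alone, by pin tool to lung cancer cell lines in 1536-well plates the day after seeding. Nuclei were stained and counted after 5 days. Relative viability is the nuclei count in treated wells over that in vehicle wells, taken as the median of duplicate plates.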

Compound in the assay “Pemetrexed + Navitoclax”: Nc1nc2[nH]cc(CCc3ccc(C(=O)N[C@@H](CCC(=O)O)C(=O)O)cc3)c2c(=O)[nH]1 [Pemetrexed] + CC1(C)CCC(c2ccc(Cl)cc2)=C(CN2CCN(c3ccc(C(=O)NS(=O)(=O)c4ccc(N[C@H](CCN5CCOCC5)CSc5ccccc5)c(S(=O)(=O)C(F)(F)F)c4)cc3)CC2)C1 [Navitoclax] (partner 0.5 µM)
The method in brief: as §1

Compound in the assay “Pemetrexed + OSI-027”: Nc1nc2[nH]cc(CCc3ccc(C(=O)N[C@@H](CCC(=O)O)C(=O)O)cc3)c2c(=O)[nH]1 [Pemetrexed] + COc1cccc2cc(-c3nc([C@H]4CC[C@H](C(=O)O)CC4)n4ncnc(N)c34)[nH]c12 [OSI-027] (partner 0.5 µM)
The method in brief:
as §1

Compound in the assay “Pemetrexed + Olaparib”: Nc1nc2[nH]cc(CCc3ccc(C(=O)N[C@@H](CCC(=O)O)C(=O)O)cc3)c2c(=O)[nH]1 [Pemetrexed] + O=C(c1cc(Cc2n[nH]c(=O)c3ccccc23)ccc1F)N1CCN(C(=O)C2CC2)CC1 [Olaparib] (partner 8 µM)
The method in brief: as §1

Take UMC-11: the relative viability in the assay with Idelalisib + Bortezomib (first compound 0.04 µM) stood at 0.477; in the assay with Idelalisib + Bortezomib (first compound 0.1265 µM) it was 0.858; with Idelalisib + Bortezomib (first compound 0.4 µM) it was 0.744; with Idelalisib + Bortezomib (first compound 1.265 µM), 0.771; with Idelalisib + Bortezomib (first compound 4 µM) it was 0.521; with Pemetrexed + Navitoclax (first compound 0.002 µM), 0.292. The relative viability with Pemetrexed + Navitoclax (first compound 0.006325 µM) is 0.283; with Pemetrexed + Navitoclax (first compound 0.02 µM), 0.354; with Pemetrexed + Navitoclax (first compound 0.06325 µM), 0.312; in the assay with Pemetrexed + Navitoclax (first compound 0.2 µM) it was 0.344; in the assay with Pemetrexed + OSI-027 (first compound 0.002 µM) it was 0.501; in the assay with Pemetrexed + OSI-027 (first compound 0.006325 µM), 0.482. Moreover, the relative viability with Pemetrexed + OSI-027 (first compound 0.02 µM) is 0.481; with Pemetrexed + OSI-027 (first compound 0.06325 µM) it was 0.522; with Pemetrexed + OSI-027 (first compound 0.2 µM) it was 0.487; in the assay with Pemetrexed + Olaparib (first compound 0.002 µM), 0.361; with Pemetrexed + Olaparib (first compound 0.006325 µM), 0.374; with Pemetrexed + Olaparib (first compound 0.02 µM) it was 0.999. Besides, the figures for the relative viability with Pemetrexed + Olaparib (first compound 0.06325 µM) and with Pemetrexed + Olaparib (first compound 0.2 µM) were 0.441 and 0.358, respectively.
